Consider 1 molecule from ChEMBL document CHEMBL3817811, “Protective effect of α-mangostin against iodixanol-induced apoptotic damage in LLC-PK1 cells” (Bioorg Med Chem Lett, 2016).

SMILES strings stand for the structures. Active and inactive are the calls of the source. The calls are words filed in the database; no cut-off is given here.

Data set [1] has as its system LLC-PK1. The experiment in a line: Inhibition of p38 phosphorylation in pig LLC-PK1 cells at 2.5 to 5 uM preincubated for 2 hrs followed by iodixanol addition measured after 3 hrs by western blot analysis. Type of data set: cell-based. The note with it: Sus scrofa. A general note: Immunoblotting shows a protein as a band on a membrane.
Data set [2] deals with LLC-PK1. The experiment in a line: Cytoprotective activity against 25 mg/ml iodixanol-induced cell damage in pig LLC-PK1 cells assessed as inhibition of cleaved caspase-3 expression at 2.5 to 5 uM preincubated for 2 hrs followed by iodixanol addition measured after 3 hrs by western blot analysis. The format is functional, cell-based. The note with it: Sus scrofa.
Data set [3] concerns LLC-PK1. The experiment in a line: Cytotoxicity against pig LLC-PK1 cells assessed as reduction in cell viability at 1 to 10 uM incubated for 2 hrs by MTT assay. The format is cell-based, Sus scrofa. The settings on record: llc-pk1, 2 h. Background: Tetrazolium dyes change colour on reduction, which living cells bring about.
In data set [4] the test system is LLC-PK1. Kind of data set: Inhibition of JNK phosphorylation in pig LLC-PK1 cells at 2.5 to 5 uM preincubated for 2 hrs followed by iodixanol addition measured after 3 hrs by western blot analysis. The format is cell-based. The note with it: Sus scrofa.
Data set [5] relates to LLC-PK1. Kind of data set: Cytoprotective activity against 25 mg/ml iodixanol-induced apoptosis in pig LLC-PK1 cells assessed as reduction in dead cells preincubated for 2 hrs followed by iodixanol addition measured after 3 hrs by annexin V Alexa Fluor 488/propidium iodide staining based cytometry. Type of data set: functional, cell-based. The settings on record: Sus scrofa.

Data set [6] deals with LLC-PK1. Kind of data set: Cytoprotective activity against 25 mg/ml iodixanol-induced cell damage in pig LLC-PK1 cells assessed as inhibition of caspase-3 enzyme activity using DEVD-pNA substrate at 2.5 to 5 uM preincubated for 2 hrs followed by iodixanol addition and subsequent incubation for 3 hrs followed by substrate addition measured after 1 hr by microplate reader analysis. The settings on record: Sus scrofa. Type of data set: functional, cell-based.

Data set [7] concerns LLC-PK1. The experiment in a line: Cytoprotective activity against 25 mg/ml iodixanol-induced cell damage in pig LLC-PK1 cells assessed as restoration of cell viability preincubated for 2 hrs followed by iodixanol addition measured after 3 hrs by MTT assay. The note with it: Sus scrofa. Type of data set: functional, cell-based.
Data set [8] has as its system LLC-PK1. The experiment in a line: Inhibition of ERK phosphorylation in pig LLC-PK1 cells at 2.5 to 5 uM preincubated for 2 hrs followed by iodixanol addition measured after 3 hrs by western blot analysis. Type of data set: cell-based. The settings on record: Sus scrofa.
Data set [9] has as its system LLC-PK1. The experiment in a line: Cytoprotective activity against 25 mg/ml iodixanol-induced cell damage in pig LLC-PK1 cells assessed as restoration of cell viability at 5 uM preincubated for 2 hrs followed by iodixanol addition measured after 3 hrs by MTT assay relative to control. Type of data set: functional, Sus scrofa.

In the case of `COc1c(O)cc2oc3cc(O)c(CC=C(C)C)c(O)c3c(=O)c2c1CC=C(C)C` [MANGOSTIN], the inhibition entry with LLC-PK1 [1], in the data set on LLC-PK1 [2], with LLC-PK1 [4], in the data set with LLC-PK1 [6] and in the data set on LLC-PK1 [8] was “Active” throughout. The Activity result was “Non-toxic” in the data set with LLC-PK1 [3], “Dose-dependent effect” with LLC-PK1 [5], “Dose-dependent effect” with LLC-PK1 [7] and “<=90.42%” with LLC-PK1 [9].
